ChEMBL document CHEMBL5465560, “Selectivity Literature for EUbOPEN Chemogenomic Library” (2024)
Blank lines part the entries; values can stand above or below the compound they belong to.

Assays:
[1] = target: Glycogen synthase kinase-3 beta (Homo sapiens, UniProt P49841); assay: Selectivity interaction (Ambit KINOMEscan and KiNATiv profiling in Jurkat cells) EUB0000090b GSK3B; format: cell-based; settings: at 1 µM
[2] = target: Serine/threonine-protein kinase PAK 6 (Homo sapiens) (UniProt Q9NQU5); assay: Selectivity interaction (KinomeScan (DiscoverX)) EUB0001079a PAK6; settings: at 1 µM
Chain of Serine/threonine-protein kinase PAK 6 (Homo sapiens) (Q9NQU5 whole entry, looked up): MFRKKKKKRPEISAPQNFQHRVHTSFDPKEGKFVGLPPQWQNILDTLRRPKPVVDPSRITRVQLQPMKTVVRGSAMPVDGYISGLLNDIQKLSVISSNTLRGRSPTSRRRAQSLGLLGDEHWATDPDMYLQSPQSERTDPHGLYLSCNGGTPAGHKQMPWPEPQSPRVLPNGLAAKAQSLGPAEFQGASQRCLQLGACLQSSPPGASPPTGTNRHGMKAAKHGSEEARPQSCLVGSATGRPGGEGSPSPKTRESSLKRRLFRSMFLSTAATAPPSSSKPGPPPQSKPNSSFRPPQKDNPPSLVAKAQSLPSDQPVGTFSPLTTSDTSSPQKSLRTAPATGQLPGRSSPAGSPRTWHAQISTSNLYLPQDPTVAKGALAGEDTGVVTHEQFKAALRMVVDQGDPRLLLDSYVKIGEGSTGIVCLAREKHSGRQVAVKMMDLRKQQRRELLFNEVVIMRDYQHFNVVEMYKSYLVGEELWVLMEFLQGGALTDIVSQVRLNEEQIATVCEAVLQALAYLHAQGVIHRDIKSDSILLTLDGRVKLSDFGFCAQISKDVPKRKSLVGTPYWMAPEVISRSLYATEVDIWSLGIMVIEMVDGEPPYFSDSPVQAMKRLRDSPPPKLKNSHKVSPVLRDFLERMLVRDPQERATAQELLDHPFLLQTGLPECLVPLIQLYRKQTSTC

[3] = target: T1, Serine/threonine-protein kinase TAO2 (Homo sapiens) (UniProt Q9UL54); assay: Selectivity interaction (KinomeScan (DiscoverX)) EUB0000595a TAOK2; settings: at 10 µM
T1 sequence (whole entry): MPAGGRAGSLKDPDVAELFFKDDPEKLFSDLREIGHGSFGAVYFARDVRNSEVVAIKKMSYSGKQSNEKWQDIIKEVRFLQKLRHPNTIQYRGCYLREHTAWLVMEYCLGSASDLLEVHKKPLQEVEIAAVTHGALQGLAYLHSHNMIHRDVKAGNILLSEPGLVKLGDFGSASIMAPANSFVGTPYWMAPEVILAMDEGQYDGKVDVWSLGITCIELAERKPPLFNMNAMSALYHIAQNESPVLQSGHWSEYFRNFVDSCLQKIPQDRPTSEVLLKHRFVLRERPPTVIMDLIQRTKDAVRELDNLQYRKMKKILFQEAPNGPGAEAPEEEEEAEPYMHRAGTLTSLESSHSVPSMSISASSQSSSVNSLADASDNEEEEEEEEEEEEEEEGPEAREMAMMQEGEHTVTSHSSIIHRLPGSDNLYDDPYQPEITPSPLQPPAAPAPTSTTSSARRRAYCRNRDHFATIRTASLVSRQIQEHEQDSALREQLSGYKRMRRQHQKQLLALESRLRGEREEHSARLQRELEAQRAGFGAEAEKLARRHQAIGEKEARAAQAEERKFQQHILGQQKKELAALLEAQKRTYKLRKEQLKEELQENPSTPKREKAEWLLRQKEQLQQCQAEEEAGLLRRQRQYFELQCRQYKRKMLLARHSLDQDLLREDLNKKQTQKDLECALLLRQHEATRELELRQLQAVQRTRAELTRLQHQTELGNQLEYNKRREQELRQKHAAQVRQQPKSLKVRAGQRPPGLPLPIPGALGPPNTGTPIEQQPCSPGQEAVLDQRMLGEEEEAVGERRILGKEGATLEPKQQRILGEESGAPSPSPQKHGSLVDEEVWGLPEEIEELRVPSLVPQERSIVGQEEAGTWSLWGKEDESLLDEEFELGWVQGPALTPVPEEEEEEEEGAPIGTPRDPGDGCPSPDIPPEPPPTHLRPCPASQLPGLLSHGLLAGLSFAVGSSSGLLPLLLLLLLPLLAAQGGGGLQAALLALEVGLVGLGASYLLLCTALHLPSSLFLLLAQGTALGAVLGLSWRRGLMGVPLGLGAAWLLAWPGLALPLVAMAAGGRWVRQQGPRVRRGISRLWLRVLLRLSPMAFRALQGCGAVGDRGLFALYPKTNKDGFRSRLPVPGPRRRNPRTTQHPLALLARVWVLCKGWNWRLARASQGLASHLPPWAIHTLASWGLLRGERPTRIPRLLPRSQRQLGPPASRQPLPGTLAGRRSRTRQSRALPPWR

[4] = target: T2, Inhibitor of nuclear factor kappa-B kinase subunit epsilon (Homo sapiens) (UniProt Q14164); assay: Selectivity interaction (ActivX KiNativ screen (kinase selectivity in THP-1 cell lysates)) EUB0000639a IKBKE; format: subcellular; settings: lysate, at 1 µM
T2 sequence (whole entry): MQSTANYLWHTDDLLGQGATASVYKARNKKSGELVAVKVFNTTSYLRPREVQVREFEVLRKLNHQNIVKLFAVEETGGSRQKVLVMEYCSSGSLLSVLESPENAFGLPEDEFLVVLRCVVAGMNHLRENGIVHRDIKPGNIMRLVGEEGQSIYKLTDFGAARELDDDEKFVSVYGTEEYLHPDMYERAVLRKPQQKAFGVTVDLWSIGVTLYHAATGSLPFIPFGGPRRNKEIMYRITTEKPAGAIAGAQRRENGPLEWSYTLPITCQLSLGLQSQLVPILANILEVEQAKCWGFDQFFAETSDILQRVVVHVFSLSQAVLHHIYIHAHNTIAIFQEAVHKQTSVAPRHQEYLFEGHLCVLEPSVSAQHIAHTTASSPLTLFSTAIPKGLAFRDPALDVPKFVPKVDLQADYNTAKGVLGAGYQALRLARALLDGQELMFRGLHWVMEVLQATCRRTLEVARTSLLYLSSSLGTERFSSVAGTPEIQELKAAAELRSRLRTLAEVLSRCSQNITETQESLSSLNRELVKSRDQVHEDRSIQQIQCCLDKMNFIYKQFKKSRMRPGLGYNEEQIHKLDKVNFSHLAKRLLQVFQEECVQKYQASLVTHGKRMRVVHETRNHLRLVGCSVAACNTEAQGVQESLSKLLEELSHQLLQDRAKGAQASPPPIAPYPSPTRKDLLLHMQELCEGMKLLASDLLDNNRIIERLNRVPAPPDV

[5] = target: Histone-lysine N-methyltransferase SETD2 (Homo sapiens) (UniProt Q9BYW2); assay: Selectivity interaction (Transferase panel (protein, RNA, and DNA methyltransferases. and EP300 (acetyltransferase))) EUB0000270b SETD2
Chain of Histone-lysine N-methyltransferase SETD2 (Homo sapiens) (Q9BYW2 whole entry): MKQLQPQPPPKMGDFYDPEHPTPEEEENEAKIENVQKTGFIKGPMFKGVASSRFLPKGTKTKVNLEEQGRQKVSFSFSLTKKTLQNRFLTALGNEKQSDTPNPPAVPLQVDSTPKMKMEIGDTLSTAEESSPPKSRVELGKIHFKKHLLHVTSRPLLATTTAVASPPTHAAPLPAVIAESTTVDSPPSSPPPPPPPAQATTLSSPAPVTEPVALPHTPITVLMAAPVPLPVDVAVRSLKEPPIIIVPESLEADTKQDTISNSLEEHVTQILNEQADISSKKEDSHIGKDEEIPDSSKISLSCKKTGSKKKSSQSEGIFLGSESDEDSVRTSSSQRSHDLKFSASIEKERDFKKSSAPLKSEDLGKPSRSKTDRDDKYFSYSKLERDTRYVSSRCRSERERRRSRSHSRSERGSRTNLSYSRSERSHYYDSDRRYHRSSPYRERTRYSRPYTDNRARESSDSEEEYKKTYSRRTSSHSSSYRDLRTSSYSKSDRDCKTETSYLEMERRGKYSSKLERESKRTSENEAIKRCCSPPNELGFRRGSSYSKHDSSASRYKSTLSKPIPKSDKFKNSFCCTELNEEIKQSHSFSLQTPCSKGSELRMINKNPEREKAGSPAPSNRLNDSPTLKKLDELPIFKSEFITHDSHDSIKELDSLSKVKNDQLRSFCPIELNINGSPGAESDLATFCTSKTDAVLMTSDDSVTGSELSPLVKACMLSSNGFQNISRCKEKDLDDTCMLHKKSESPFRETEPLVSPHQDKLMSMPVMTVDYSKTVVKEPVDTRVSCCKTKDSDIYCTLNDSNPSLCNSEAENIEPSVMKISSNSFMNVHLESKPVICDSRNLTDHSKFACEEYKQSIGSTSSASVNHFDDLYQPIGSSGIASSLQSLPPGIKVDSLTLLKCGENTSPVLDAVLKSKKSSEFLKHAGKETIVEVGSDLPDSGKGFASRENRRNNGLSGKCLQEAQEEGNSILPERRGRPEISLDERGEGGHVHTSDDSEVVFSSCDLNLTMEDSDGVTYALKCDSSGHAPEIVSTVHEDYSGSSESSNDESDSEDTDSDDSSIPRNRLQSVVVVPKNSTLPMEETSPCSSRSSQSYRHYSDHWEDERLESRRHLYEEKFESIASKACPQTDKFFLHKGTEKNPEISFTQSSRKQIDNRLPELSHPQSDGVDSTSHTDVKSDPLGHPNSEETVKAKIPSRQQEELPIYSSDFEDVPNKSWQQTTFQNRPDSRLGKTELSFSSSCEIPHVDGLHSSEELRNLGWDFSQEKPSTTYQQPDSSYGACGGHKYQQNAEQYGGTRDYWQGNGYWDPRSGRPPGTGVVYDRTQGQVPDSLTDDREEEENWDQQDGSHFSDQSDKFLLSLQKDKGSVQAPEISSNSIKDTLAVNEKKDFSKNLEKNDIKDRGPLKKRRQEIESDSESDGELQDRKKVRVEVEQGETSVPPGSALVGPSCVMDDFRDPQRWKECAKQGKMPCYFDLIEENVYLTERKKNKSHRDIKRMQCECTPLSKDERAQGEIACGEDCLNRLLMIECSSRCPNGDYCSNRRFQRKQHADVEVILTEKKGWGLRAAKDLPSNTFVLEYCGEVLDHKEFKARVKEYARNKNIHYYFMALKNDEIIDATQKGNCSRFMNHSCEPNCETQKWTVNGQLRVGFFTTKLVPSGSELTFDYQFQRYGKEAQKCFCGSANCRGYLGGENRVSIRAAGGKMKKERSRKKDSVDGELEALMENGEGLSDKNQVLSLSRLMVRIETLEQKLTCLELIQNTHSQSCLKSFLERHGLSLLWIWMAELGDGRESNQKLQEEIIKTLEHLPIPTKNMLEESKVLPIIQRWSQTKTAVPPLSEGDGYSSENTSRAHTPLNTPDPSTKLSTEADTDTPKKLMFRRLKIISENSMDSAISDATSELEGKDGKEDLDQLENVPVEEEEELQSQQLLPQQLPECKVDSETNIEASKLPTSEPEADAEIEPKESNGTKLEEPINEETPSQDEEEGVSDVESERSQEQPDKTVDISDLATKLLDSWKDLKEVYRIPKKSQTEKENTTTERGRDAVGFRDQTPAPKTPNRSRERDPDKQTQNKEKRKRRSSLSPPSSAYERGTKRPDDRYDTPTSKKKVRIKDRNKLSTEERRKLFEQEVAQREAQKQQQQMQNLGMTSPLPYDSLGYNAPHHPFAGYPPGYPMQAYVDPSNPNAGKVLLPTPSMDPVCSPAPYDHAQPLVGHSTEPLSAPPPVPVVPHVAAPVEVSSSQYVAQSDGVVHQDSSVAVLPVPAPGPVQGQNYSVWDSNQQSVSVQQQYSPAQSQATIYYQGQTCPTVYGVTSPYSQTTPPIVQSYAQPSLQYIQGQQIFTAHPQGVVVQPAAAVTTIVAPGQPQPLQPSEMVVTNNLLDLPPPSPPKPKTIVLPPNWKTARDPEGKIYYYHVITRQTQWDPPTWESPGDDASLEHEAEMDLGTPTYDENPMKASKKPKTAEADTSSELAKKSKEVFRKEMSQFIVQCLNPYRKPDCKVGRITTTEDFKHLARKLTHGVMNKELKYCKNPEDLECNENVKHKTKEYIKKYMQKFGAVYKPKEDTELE

[6] = target: [Pyruvate dehydrogenase (acetyl-transferring)] kinase isozyme 1, mitochondrial (Homo sapiens, UniProt Q15118); assay: Selectivity interaction (ProQinase) EUB0000171b PDK1
[7] = target: Dual specificity protein kinase CLK1 (Homo sapiens, UniProt P49759); assay: Selectivity interaction (KinomeScan (DiscoverX)) EUB0001550a CLK1; settings: at 1 µM
Chain of Dual specificity protein kinase CLK1 (P49759 whole entry, looked up): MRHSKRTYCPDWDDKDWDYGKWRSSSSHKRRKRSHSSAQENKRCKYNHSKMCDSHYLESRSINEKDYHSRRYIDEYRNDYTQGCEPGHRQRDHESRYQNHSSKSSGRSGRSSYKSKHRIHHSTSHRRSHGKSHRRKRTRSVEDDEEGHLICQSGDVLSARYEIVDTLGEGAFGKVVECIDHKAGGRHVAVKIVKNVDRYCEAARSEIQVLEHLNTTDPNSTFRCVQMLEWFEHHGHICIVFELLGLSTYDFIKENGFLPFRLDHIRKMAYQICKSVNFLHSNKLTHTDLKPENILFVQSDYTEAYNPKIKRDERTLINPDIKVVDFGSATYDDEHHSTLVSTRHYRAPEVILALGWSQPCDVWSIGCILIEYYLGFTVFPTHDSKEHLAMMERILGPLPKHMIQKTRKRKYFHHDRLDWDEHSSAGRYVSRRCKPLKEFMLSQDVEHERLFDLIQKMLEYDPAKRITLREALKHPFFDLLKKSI

Chain of Glycogen synthase kinase-3 beta (P49841 whole entry, looked up): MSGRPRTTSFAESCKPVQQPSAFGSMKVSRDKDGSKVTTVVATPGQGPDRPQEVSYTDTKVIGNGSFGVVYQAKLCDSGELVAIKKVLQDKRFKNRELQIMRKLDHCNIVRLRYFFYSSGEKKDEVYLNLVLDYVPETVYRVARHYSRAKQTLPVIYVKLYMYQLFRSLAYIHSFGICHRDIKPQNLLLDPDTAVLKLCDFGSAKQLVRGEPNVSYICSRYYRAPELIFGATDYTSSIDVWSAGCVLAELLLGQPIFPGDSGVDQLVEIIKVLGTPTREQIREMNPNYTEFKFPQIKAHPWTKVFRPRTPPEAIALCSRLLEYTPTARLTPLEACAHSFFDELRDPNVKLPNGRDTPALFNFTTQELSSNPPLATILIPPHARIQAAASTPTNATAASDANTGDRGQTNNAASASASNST

SMILES: CN(C)C/C=C/C(=O)Nc1ccc(C(=O)N2CCCC(Nc3ncc(Cl)c(-c4c[nH]c5ccccc45)n3)C2)cc1 (centres undefined)
% of control [1]: 38%

SMILES: Nc1cnc(N2CCc3cc(S(=O)(=O)Nc4c(F)cc(Cl)cc4F)cc(N4CCCC4=O)c32)nc1 [TP-020n]
% of control [2]: 90%

SMILES: COCC(=O)NC/C=C/c1ccc2ncnc(Nc3ccc(Oc4ccc(C)nc4)c(C)c3)c2c1 [CP-724714]
% of control [3]: 100%

% of inhibition [4]: 10%
SMILES: CC[C@@H]1[C@H](F)C(=O)N[C@@H]1COc1nccc2cc(C(N)=O)c(OC)cc12 [ZIMLOVISERTIB]

% activity ([5]; at 1 µM): > 90%
% activity ([5]; at 10 µM): > 80%
SMILES: Cc1cc(CN)cc(C)c1-c1ncn(C)c1-c1cncn1C

% of control ([6]; at 1 µM): 74%
% of control ([6]; at 5 µM): 39%
SMILES: C=CC(=O)Nc1cccc(C(=O)Nc2ccc(Nc3cc(-c4[nH]c(SC)nc4C)ccn3)cc2)c1

% of control [7]: 30%
SMILES: CN(C)CC#Cc1ccc2[nH]c3c(c2c1)-c1nc(N)ncc1CCC3
